According to PMC8305652, “Copper(II) Complexes Containing Natural Flavonoid Pomiferin Show Considerable In Vitro Cytotoxicity and Anti-inflammatory Effects” (International Journal of Molecular Sciences, 2021):

Tests used:
[1] = system: TNF-α in differentiated THP-1 macrophages; assay: TNF-α secretion, ELISA; assay type: cell-based, human; settings: 200 nM, 1 h pre-treatment, LPS 1 µg/mL, 24 h
Description: Differentiated THP-1 macrophages (see above) were pre-treated with either 200 nM solutions of the tested complexes, or 200 nM solution of prednisone dissolved in 0.1% DMF or the vehicle (0.1% (v/v) DMF solution) for 1 h, as described previously. The concentration of TNF-α was measured using a Human TNF-α ELISA Kit (Diaclone, Besançon, France), according to the manufacturer’s manual. Each experiment was conducted in triplicate.

THP-1 cells = assay: intracellular production of reactive oxygen species, DCFH2-DA; assay type: cell-based, human; settings: THP-1, 200 nM; for increase of total ROS levels: 1.5 h experiment; for ROS production, long term: 23.5 h, pyocyanin 100 μM as radical-forming control
Description: THP-1 cells were used for the determination of the potential of tested compounds to initiate the intracellular ROS production, as was described previously with some minor modifications. Cells in serum-free RPMI 1640 medium without phenol red were seeded into black 96-well plates (5 × 10^4 cells/100 µL/well). After 2 h of incubation, the cells were treated with copper(II) complexes 1–5 at a concentration of 200 nM, and pyocyanin at a final concentration of 100 μM was added into control group to trigger production of reactive oxygen species (ROS), respectively. After the incubation at 37 °C for either 1.5 h or 23.5 h, dichlorofluorescin diacetate (DCFH2-DA) (5 μg/mL) was added and cells were kept under the same conditions hereafter. Thirty minutes later, fluorometric measurement of the fluorescent product DCF was conducted using a Tecan Infinite F200 microplate reader (Tecan, Männedorf, Switzerland) with λ(ex./em.) = 485/520 nm.

pUC19 plasmid DNA = assay: nuclease-like activity, plasmid DNA cleavage; assay type: biochemical; settings: for plasmid DNA nicked to OC-form: 10 µM; for cleavage of plasmid DNA: 300 µM; for DNA cleavage in the presence of ROS scavengers (KI, NaN3, DMSO): 0.66 mM H2O2, scavengers equimolar to complex; for effectivity of plasmid DNA cleavage with H2O2: order 2 ≈ 4 > 1
[2] = system: breast adenocarcinoma (MCF-7); assay: in vitro cytotoxicity, MTT assay; assay type: cell-based, human; settings: at least three independent experiments
Description: (§1) The testing was performed on the following human cancer cell lines: breast adenocarcinoma (MCF-7), osteosarcoma (HOS), lung adenocarcinoma (A549), prostate adenocarcinoma (PC-3), ovarian carcinoma (A2780), cisplatin-resistant ovarian carcinoma (A2780R) and colorectal adenocarcinoma (Caco-2) obtained from ATCC collection of cell lines and cultivated according to producer’s instructions.

[3] = system: prostate adenocarcinoma (PC-3); assay: in vitro cytotoxicity, MTT assay; assay type: cell-based, human; settings: mean ± SD, at least three independent experiments
Description: as §1

[4] = system: lung adenocarcinoma (A549); assay: in vitro cytotoxicity, MTT assay; assay type: cell-based, human; settings: at least three independent experiments
Description: as §1

[5] = system: cisplatin-resistant ovarian carcinoma (A2780R); assay: in vitro cytotoxicity, MTT assay; assay type: cell-based, human; settings: mean ± SD, at least three independent experiments
Description: as §1

[6] = system: ovarian carcinoma (A2780); assay: in vitro cytotoxicity, MTT assay; assay type: cell-based, human; settings: at least three independent experiments
Description: as §1

[7] = system: primary culture of human hepatocytes (Hep); assay: toxicity against primary culture of human hepatocytes; assay type: cell-based; settings: tested range 0.1–100 μM
A2780 cells [8] = assay: mitochondrial membrane potential, MITO-ID flow cytometry; assay type: cell-based, human; settings: A2780, 15 µM, 24 h; compared with cisplatin
Description: After 24 h, the cells were washed once with PBS (0.1 M, pH 7.4), detached with trypsin (0.25% in ethylenediaminetetraacetic acid (EDTA), Sigma-Aldrich), and resuspended in 500 µL of culture medium. Then the staining was performed using MITO-ID® Membrane potential detection kit (Enzo Life Sciences, Farmingdale, NY, USA) according to the manufacturer’s protocol and samples were measured in three independent experiments, each time in duplicates on BD FACSVerse flow cytometer (Becton Dickinson, Franklin Lakes, NJ, USA), while at least 10^4 events were recorded for each sample.

A2780 cells [9] = assay: cell cycle analysis by flow cytometry; assay type: cell-based, human; settings: A2780, 15 µM, 24 h
Description: Human ovarian cancer cell line A2780 (Sigma, Darmstadt, Germany) were used for this study. Cells were cultivated at 37 °C under a 5% CO2 atmosphere in an RPMI 1640 medium (Sigma Aldrich, Darmstadt, Germany) supplemented with (the final concentrations in medium): L-glutamine (2 mM), fetal bovine serum (FBS, 10%) and PenStrep (5 U penicillin, 50 µg streptomycin/mL).
After 24 h, the cells were washed once with PBS (0.1 M, pH 7.4) and cell cycle analysis was performed according to the protocol of BD Cycletest^TM Plus DNA kit (Becton Dickinson, Franklin Lakes, NJ, USA). Measurements were performed using BD FACSVerse flow cytometer (Becton Dickinson, Franklin Lakes, NJ, USA) in 3 independent experiments, each done in duplicate, while at least 5 × 10^3 events were recorded for each sample.

[10] = system: colorectal adenocarcinoma (Caco-2); assay: in vitro cytotoxicity, MTT assay; assay type: cell-based, human; settings: at least three independent experiments
A2780 cells [11] = assay: Annexin V/propidium iodide cell death assay, flow cytometry; assay type: cell-based, human; settings: 24 h; for Annexin V +/PI + cells (late apoptotic/secondary necrotic) / Annexin V +/PI − cells (early apoptotic): A2780, 15 µM, mean of three experiments
Description: Both methods were performed according to the manufacturers’ protocols with 1 modification in the caspase induction assay, which was the use of the CellEvent^TM Caspase-3/7 Green Detection Reagent only for detection of Caspase-3/7 activation. […] After 24 h, the cells were washed once with PBS (0.1 M, pH 7.4), detached with trypsin (0.25% in ethylenediaminetetraacetic acid (EDTA), Sigma-Aldrich), resuspended in 500 µL of the culture medium and divided into 2 separate tubes, the first for apoptosis assay and the second one for caspase activation analysis. After staining with appropriate dyes, samples were analyzed on a BD FACSVerse flow cytometer (Becton Dickinson, Franklin Lakes, NJ, USA) in 3 separate experiments, while at least 10^4 events were recorded for each sample prepared in duplicate.

[12] = water-containing medium (10% DMF), 37 °C, 1 h

Compound	secretion of TNF-α [1]	increase of total ROS levels (THP-1 cells)	ROS production, long term (THP-1 cells)	plasmid DNA nicked to OC-form (pUC19 plasmid DNA; [12])	cleavage of plasmid DNA (pUC19 plasmid DNA; [12])	DNA cleavage in the presence of ROS scavengers (KI, NaN3, DMSO) (pUC19 plasmid DNA)	effectivity of plasmid DNA cleavage with H2O2 (pUC19 plasmid DNA; 0.66 mM H2O2)	IC50 ([2]; mean ± SD)	IC50 [3]	IC50 ([4]; mean ± SD)	IC50 [5]	IC50 ([6]; mean ± SD)	IC50 [7]	damage of mitochondrial function (membrane potential) (A2780 cells [8])	IC50 ([10]; mean ± SD)	Annexin V +/PI + cells (late apoptotic/secondary necrotic) (A2780 cells [11])	Annexin V +/PI − cells (early apoptotic) (A2780 cells [11])	further results
CC(C)=CCc1c2c(c3occ(-c4ccc(O)c(O)c4)c(=O)c3c1[O-])C=CC(C)(C)O2.Cc1ccnc(-c2cc(C)ccn2)c1.O.O.O=[N+]([O-])[O-].[Cu+2] [Complex 2, (3-(3,4-dihydroxyphenyl)-8,8-dimethyl-6-(3-methylbut-2-en-1-yl)-4H,8H-benzo[1,2-b:3,4-b′]dipyran-4-one-5-olato-κ^2O4:O5)(4,4′-dimethyl-2,2′-bipyridine–κ^2N:N)copper(II) nitrate dihydrate]	decreased its production	55%	pro-oxidant effect almost diminished	ca. 30%	cleave the DNA completely to small fragments	not affected by the addition of the ROS scavengers	comparable with the effectivity of copper sulphate pentahydrate	29.6 ± 2 µM	> 50 µM	20.9 ± 0.9 µM	5.3 ± 1.1 µM	5.4 ± 2.4 µM	> 100 µM	strong ability	5.1 ± 1.6 µM	19.8 ± 0.7%	9.2 ± 0.8%	cells in G2/M phase (A2780 cells [9]; control 20.1 ± 0.4%): 21.9 ± 0.8%
CC(C)=CCc1c2c(c3occ(-c4ccc(O)c(O)c4)c(=O)c3c1[O-])C=CC(C)(C)O2.CO.O=[N+]([O-])[O-].[Cu+2].c1ccc(-c2ccnc3c2ccc2c(-c4ccccc4)ccnc23)cc1 [Complex 4, (3-(3,4-dihydroxyphenyl)-8,8-dimethyl-6-(3-methylbut-2-en-1-yl)-4H,8H-benzo[1,2-b:3,4-b′]dipyran-4-one-5-olato-κ^2O4:O5)(4,7-diphenyl-1,10-phenanthroline–κ^2N:N)copper(II) nitrate methanol solvate]	did not affect the TNF-α synthesis	87%	pro-oxidant effect almost diminished	ca. 30%	cleave the DNA completely to small fragments	not affected by the addition of the ROS scavengers	comparable with the effectivity of copper sulphate pentahydrate	16 ± 1.1 µM	13 ± 1.1 µM	8.7 ± 0.8 µM	6.6 ± 2.3 µM	12.8 ± 3.1 µM	> 100 µM	strong ability	22.9 ± 12.9 µM	93.3 ± 2.9%		cells in G0/G1 phase (A2780 cells [9]; control 58.4 ± 0.5%): 62.1 ± 1.2%
CC(C)=CCc1c2c(c3occ(-c4ccc(O)c(O)c4)c(=O)c3c1O)C=CC(C)(C)O2 [pomiferin, 3-(3,4-dihydroxyphenyl)-5-hydroxy-8,8-dimethyl-6-(3-methylbut-2-ene-1-yl)-4H,8H-benzo[1,2-b:3,4-b′]dipyran-4-one]			did not increase the amount of ROS											strong ability		49.0 ± 1.9%	10.0 ± 0.1%	ROS production, short term (THP-1 cells; 1.5 h): did not increase the amount of ROS; lowering of the portion of OC-form formed after addition of hydrogen peroxide (pUC19 plasmid DNA; 0.66 mM H2O2): ca. 20%; effect on supercoiled CCC-form of plasmid DNA (pUC19 plasmid DNA; [12]): did not affect; IC50 ([2]; Homo sapiens, MCF7, mean ± SD): 22 ± 0.1 µM; IC50 ([3]; Homo sapiens): 18.5 ± 0.7 µM; IC50 ([4]; Homo sapiens, A549, mean ± SD): 21.2 ± 1.4 µM; IC50 ([5]; Homo sapiens): 4.3 ± 1.3 µM; IC50 ([6]; Homo sapiens, A2780, mean ± SD): 8.4 ± 2 µM; IC50 ([7]; Hepatocyte): > 50 µM; cells in the S phase of the cell cycle (A2780 cells [9]; untreated control 21.4 ± 0.8%): 26 ± 0.9%; IC50 ([10]; Homo sapiens, Caco-2, mean ± SD): 19.8 ± 2.4 µM; viability at 15 µM (A2780 cells [11]; Homo sapiens, A2780, 15 μM, Figure 3, one out of three independent experiments, read-out: Annexin - / PI - (viable cells)): 37.1%
(3-(3,4-dihydroxyphenyl)-8,8-dimethyl-6-(3-methylbut-2-en-1-yl)-4H,8H-benzo[1,2-b:3,4-b′]dipyran-4-one-5-olato-κ^2O4:O5)(dipyrido[3,2-a:2′,3′-c]phenazine–κ^2N4:N5)copper(II) nitrate methanol solvate [Complex 5]	decreased its production		elevated the ROS levels similarly as pyocyanin					3 ± 0.5 µM	3.3 ± 0.1 µM	3.1 ± 0.2 µM	2.2 ± 0.5 µM	2.5 ± 0.9 µM	> 100 µM					
